The text below walks through data of patent publication US6043252A, “Carboline derivatives” (Icos Corporation, priority 1998, dated 2000).

In experiment [1] the test system is conscious spontaneously hypertensive rats (SHRs). The experiment in a line: Hypotensive effect in conscious spontaneously hypertensive rats. It counts as in vivo, rat. To be noted: 5 mg/kg orally in 5% DMF and 95% olive oil, AUC from 0 to 5 hours. As for the experimental part:
The hypotensive effects of compounds according to the invention as identified in Table 2 were studied in conscious spontaneously hypertensive rats (SHRs). The compounds were administered orally at a dose of 5 mg/kg in a mixture of 5% DMF and 95% olive oil. Blood pressure was measured from a catheter inserted in the carotid artery and recorded for five hours after administration. The results are expressed as Area Under the Curve (AUC from 0 to 5 hours, mmhg.hour) of the fall in blood pressure over time.

A further experiment has as its target human recombinant PDE5 (Homo sapiens, UniProt O76074). The experiment in a line: Inhibitory effect on cGMP-PDE (one-step PDE5 assay). It is filed as biochemical. To be noted: 0.15 μM 8-[H^3 ]-cGMP, 2% DMSO, 30 minutes. As for the experimental part:
CGMP-PDE activity of compounds of the present invention was measured using a one-step assay adapted from Wells et al., Biochim. Biophys. Acta, 384, 430 (1975). The reaction medium contained 50 mM Tris-HCl, pH 7.5, 5 mM magnesium acetate, […] 51-Nucleotidase, 1 mM EGTA, and 0.15 μM 8-[H^3 ]-cGMP. The enzyme used was a human recombinant PDE5 (ICOS Corp., Bothell, Wash.).
Compounds of the invention were dissolved in DMSO finally present at 2% in the assay.

Experiment [2] has as its system Rat aortic smooth muscle cells (RSMC). The experiment in a line: cGMP level measurements in rat aortic smooth muscle cells stimulated with ANF. It counts as cell-based. To be noted: compound 30 minutes at 37° C., then ANF (100 nM) 10 minutes, dose giving half of the stimulation at saturating concentrations. As for the experimental part: Rat aortic smooth muscle cells (RSMC), prepared according to Chamley et al., Cell Tissue Res., 177, 503-522 (1977), were used between the 10th and 25th passage at confluence in 24-well culture dishes. Culture media was aspirated and replaced with PBS (0.5 ml) containing the compound tested at the appropriate concentration. After 30 minutes at 37° C., particulates guanylate cyclase was stimulated by addition of ANF (100 nM) for 10 minutes. At the end of incubation, the medium was withdrawn, and two extractions were performed by addition of 65% ethanol (0.25 ml). The two ethanolic extracts were pooled and evaporated until dryness, using a Speed-vac system. CGMP was measured after acetylation by scintillation proximity immunoassay (AMERSHAM). The EC50 values are expressed as the dose-giving half of the stimulation at saturating concentrations.

Molecules are shown by their SMILES. Where only a bound is given, the exact number is not on record here.

The term IC50 denotes the concentration at which inhibition is half-maximal. Usually EC50 stands for the midpoint of the concentration-response curve. `CC(=O)Nc1ccc(/C=C/C(=O)N2CCc3c([nH]c4ccccc34)C2c2ccc3c(c2)OCO3)cc1` (stereo not drawn) [Example 14, (E)-N-[4-[3-Oxo-3-(1-(3,4-methylenedioxyphenyl)-1,3,4,9-tetrahydro-β-carbolin-2-yl)propenyl]phenyl]acetamide]: in experiment [1], the “SHR AUC PO (Area Under the Curve of the fall in blood pressure over time)” value worked out at 128 mmHG · h. Also, at human recombinant PDE5, the IC50 was 5 nM. Moreover, a half-maximal response in experiment [2] (EC50) required 450 nM. For `Nc1ccc(/C=C/C(=O)N2CCc3c([nH]c4ccccc34)C2c2ccc3c(c2)OCO3)cc1` (stereo not drawn) [Example 25, (E)-1-[1-(3,4-Methylenedioxyphenyl)-1,3,4,9-tetrahydro-β-carbolin-2-yl]-3-(4-aminophenyl)propene-1-one], in that order: 72 mmHG · h, 72 nM and 300 nM.

As for `O=C(/C=C/c1ccc([N+](=O)[O-])cc1)N1CCc2c([nH]c3ccccc23)C1c1ccc2c(c1)OCO2` (stereo not drawn) [Example 26, (E)-1-[1-(3,4-Methylenedioxyphenyl)-1,3,4,9-tetrahydro-β-carbolin-2-yl]-3-(4-nitrophenyl)propene-1-one], the “SHR AUC PO (Area Under the Curve of the fall in blood pressure over time)” value in experiment [1] is 102 mmHG · h. Take `COC(=O)c1ccc(/C=C/C(=O)N2CCc3c([nH]c4ccccc34)C2c2ccc3c(c2)OCO3)cc1` (stereo not drawn) [Example 28, (E)-4-[3-Oxo-3-[1-(3,4-methylenedioxyphenyl)-1,3,4,9-tetrahydro-β-carbolin-2-yl]-propenyl]benzoic Acid, Methyl Ester]: the “SHR AUC PO (Area Under the Curve of the fall in blood pressure over time)” value in experiment [1] is listed as 114 mmHG · h. Further, the IC50 on human recombinant PDE5 turned out to be 55 nM. For the same molecule, in experiment [2], the half-maximal effective concentration (EC50) stood at 300 nM. The like results for `O=C(O)c1ccc(/C=C/C(=O)N2CCc3c([nH]c4ccccc34)C2c2ccc3c(c2)OCO3)cc1` (stereo not drawn) [Example 31, (E)-4-[3-Oxo-3-[1-(3,4-methylenedioxyphenyl)-1,3,4,9-tetrahydro-β-carbolin-2-yl]-propenyl]benzoic acid] were, in that order, 86 mmHG · h, 4 nM and 1000 nM. As for `CC(C)C(=O)Nc1ccc(/C=C/C(=O)N2CCc3c([nH]c4ccccc34)C2c2ccc3c(c2)OCO3)cc1` (stereo not drawn) [Example 55, (E)-N-[4-[3-Oxo-3-(1-(3,4-methylenedioxyphenyl)-1,3,4,9-tetrahydro-β-carbolin-2-yl)propenyl]phenyl]isobutyramide], in experiment [1], the “SHR AUC PO (Area Under the Curve of the fall in blood pressure over time)” value came to 97 mmHG · h. In addition, the IC50 on human recombinant PDE5 came out at 40 nM. The EC50 in experiment [2] came out at 400 nM. Consider `O=C(/C=C/c1ccccc1)N1CCc2c([nH]c3ccccc23)C1c1ccc2c(c1)CCO2` (stereo not drawn) [Example 112, (E)-1-[1-(2,3-Dihydrobenzofuran-5-yl)-1,3,4,9-tetrahydro-β-carbolin-2-yl]-3-phenylpropene-1-one], for which the “SHR AUC PO (Area Under the Curve of the fall in blood pressure over time)” value in experiment [1] worked out at 71 mmHG · h. Consider `CN(C)CCOc1ccc(/C=C/C(=O)N2CCc3c([nH]c4ccccc34)C2c2ccc3c(c2)CCO3)cc1` (stereo not drawn) [Example 122], for which, in experiment [1], the “SHR AUC PO (Area Under the Curve of the fall in blood pressure over time)” value is recorded as 76 mmHG · h.

For `CN(C)CCOc1ccc(/C=C/C(=O)N2CCc3c([nH]c4ccccc34)[C@H]2c2ccc3c(c2)CCO3)cc1` [Example 140], the “SHR AUC PO (Area Under the Curve of the fall in blood pressure over time)” value in experiment [1] is given as 105 mmHG · h. The same molecule came in with an EC50 in experiment [2] of 100 nM.

As for `O=C(/C=C/c1ccc(OCCN2CCCC2)cc1)N1CCc2c([nH]c3ccccc23)C1c1ccc2c(c1)CCO2` (stereo not drawn) [Example 142], the “SHR AUC PO (Area Under the Curve of the fall in blood pressure over time)” value in experiment [1] is 74 mmHG · h. This molecule also returned an EC50 in experiment [2] of 1500 nM.

For `CN1CCC[C@H]1COc1ccc(/C=C/C(=O)N2CCc3c([nH]c4ccccc34)[C@H]2c2ccc3c(c2)CCO3)cc1` [Example 156], the “SHR AUC PO (Area Under the Curve of the fall in blood pressure over time)” value in experiment [1] worked out at 57 mmHG · h. For the same molecule, the 50% effective concentration (EC50) in experiment [2] is less than 1000 nM. For the molecule `CCN(CC)CCOc1ccc(/C=C/C(=O)N2CCc3c([nH]c4ccccc34)[C@H]2c2ccc3c(c2)CCO3)cc1` [Example 164], a half-maximal response in experiment [2] (EC50) required 1500 nM. The molecule `CC(COc1ccc(/C=C/C(=O)N2CCc3c([nH]c4ccccc34)[C@H]2c2ccc3c(c2)CCO3)cc1)N(C)C` (stereo partly drawn) [Example 165] came in with a 50% effective concentration (EC50) in experiment [2] of less than 1000 nM.

Turning to `CCN(C)CCOc1ccc(/C=C/C(=O)N2CCc3c([nH]c4ccccc34)[C@H]2c2ccc3c(c2)CCO3)cc1` [Example 175, (E)-(R)-1-[1-(2,3-Dihydrobenzofuran-5-yl)-1,3,4,9-tetrahydro-β-carbolin-2-yl]-3-(4-(2-(ethylmethylamino)ethoxy)phenyl)propene-1-one], in experiment [1], the “SHR AUC PO (Area Under the Curve of the fall in blood pressure over time)” value is 52 mmHG · h. Consider `CN(C)C[C@@H](O)COc1ccc(/C=C/C(=O)N2CCc3c([nH]c4ccccc34)C2c2ccc3c(c2)CCO3)cc1` (stereo partly drawn) [Example 177, (E)-(R)-1-[1-(2,3-Dihydrobenzofuran-5-yl)-1,3,4,9-tetrahydro-β-carbolin-2-yl]-3-(4-(3-dimethylamino-2-hydroxypropoxy)phenyl)propene-1-one], for which the “SHR AUC PO (Area Under the Curve of the fall in blood pressure over time)” value in experiment [1] came to 100 mmHG · h. The molecule also displayed a 50% effective concentration (EC50) in experiment [2] of less than 1000 nM.

Consider `CN(C)CCNc1ccc(/C=C/C(=O)N2CCc3c([nH]c4ccccc34)[C@H]2c2ccc3c(c2)CCO3)cc1` [Example 180], for which a half-maximal effect in experiment [2] (EC50) was put at 3500 nM.

Take `NCCOc1ccc(/C=C/C(=O)N2CCc3c([nH]c4ccccc34)[C@H]2c2ccc3c(c2)CCO3)cc1` [Example 181, (E)-(R)-1-[1-(2,3-Dihydrobenzofuran-5-yl)-1,3,4,9-tetrahydro-β-carbolin-2-yl]-3-(4-(2-aminoethoxy)phenyl)propene-1-one]: in experiment [1], the “SHR AUC PO (Area Under the Curve of the fall in blood pressure over time)” value was 77 mmHG · h. In experiment [2], this molecule came in with an EC50 of 2000 nM. In the case of `O=C(/C=C/c1ccc(O)cc1)N1CCc2c([nH]c3ccccc23)[C@H]1c1ccc2c(c1)CCO2` [Example 182, (E)-(R)-1-[1-(2,3-Dihydrobenzofuran-5-yl)-1,3,4,9-tetrahydro-β-carbolin-2-yl]-3-(4-hydroxyphenyl)propene-1-one], the EC50 in experiment [2] was less than 1000 nM. On to `CN1CCN(c2ccc(/C=C/C(=O)N3CCc4c([nH]c5ccccc45)[C@H]3c3ccc4c(c3)CCO4)cc2)CC1` [Example 183], for which the EC50 in experiment [2] stood at 2000 nM. `CNCc1ccc(/C=C/C(=O)N2CCc3c([nH]c4ccccc34)[C@H]2c2ccc3c(c2)CCO3)cc1` [Example 184] yielded an EC50 in experiment [2] of 3000 nM.

For `O=C(/C=C/c1ccc(OCCN2CCCCC2)cc1)N1CCc2c([nH]c3ccccc23)[C@H]1c1ccc2c(c1)CCO2` [Example 188, (E)-(R)-1-[1-(2,3-Dihydrobenzofuran-5-yl)-1,3,4,9-tetrahydro-β-carbolin-2-yl]-3-(4-(2-piperidin-1-ylethoxy)phenyl)propene-1-one], the “SHR AUC PO (Area Under the Curve of the fall in blood pressure over time)” value in experiment [1] is 86 mmHG · h. In addition, the EC50 in experiment [2] was less than 1000 nM. `CNCCOc1ccc(/C=C/C(=O)N2CCc3c([nH]c4ccccc34)[C@H]2c2ccc3c(c2)CCO3)cc1` [Example 191, (E)-(R)-1-[1-(2,3-Dihydrobenzofuran-5-yl)-1,3,4,9-tetrahydro-carbolin-2-yl]-3-[4-(2-methylaminoethoxy)phenyl]propene-1-one]: the “SHR AUC PO (Area Under the Curve of the fall in blood pressure over time)” value in experiment [1] was 84 mmHG · h. This molecule also registered a 50% effective concentration (EC50) in experiment [2] of less than 1000 nM.
